“Also recorded” adds a separate entry of the source. Read-outs that look alike come from different tables or passages of the source.
How the values were obtained:
[1] = system: osteoclast calcium receptor; experiment: increase in [Ca2+]i in indo-1-loaded rat osteoclasts; assay type: cell-based; conditions: rat osteoclasts, indo-1; inactive = no increase in cytosolic Ca2+ at 1-5 mM; read-out: EC50 OSTEOCLAST (Table 6)
[2] = molecular target: T1, calcium receptor expressed from bovine parathyroid cell mRNA in Xenopus oocytes (Bos taurus, UniProt P35384); experiment: Cl- current in Xenopus oocytes injected with bovine parathyroid mRNA; assay type: cell-based; conditions: for oscillatory increases in Cl- current (words): bovine parathyroid mRNA
T1 sequence (P35384 20-1085): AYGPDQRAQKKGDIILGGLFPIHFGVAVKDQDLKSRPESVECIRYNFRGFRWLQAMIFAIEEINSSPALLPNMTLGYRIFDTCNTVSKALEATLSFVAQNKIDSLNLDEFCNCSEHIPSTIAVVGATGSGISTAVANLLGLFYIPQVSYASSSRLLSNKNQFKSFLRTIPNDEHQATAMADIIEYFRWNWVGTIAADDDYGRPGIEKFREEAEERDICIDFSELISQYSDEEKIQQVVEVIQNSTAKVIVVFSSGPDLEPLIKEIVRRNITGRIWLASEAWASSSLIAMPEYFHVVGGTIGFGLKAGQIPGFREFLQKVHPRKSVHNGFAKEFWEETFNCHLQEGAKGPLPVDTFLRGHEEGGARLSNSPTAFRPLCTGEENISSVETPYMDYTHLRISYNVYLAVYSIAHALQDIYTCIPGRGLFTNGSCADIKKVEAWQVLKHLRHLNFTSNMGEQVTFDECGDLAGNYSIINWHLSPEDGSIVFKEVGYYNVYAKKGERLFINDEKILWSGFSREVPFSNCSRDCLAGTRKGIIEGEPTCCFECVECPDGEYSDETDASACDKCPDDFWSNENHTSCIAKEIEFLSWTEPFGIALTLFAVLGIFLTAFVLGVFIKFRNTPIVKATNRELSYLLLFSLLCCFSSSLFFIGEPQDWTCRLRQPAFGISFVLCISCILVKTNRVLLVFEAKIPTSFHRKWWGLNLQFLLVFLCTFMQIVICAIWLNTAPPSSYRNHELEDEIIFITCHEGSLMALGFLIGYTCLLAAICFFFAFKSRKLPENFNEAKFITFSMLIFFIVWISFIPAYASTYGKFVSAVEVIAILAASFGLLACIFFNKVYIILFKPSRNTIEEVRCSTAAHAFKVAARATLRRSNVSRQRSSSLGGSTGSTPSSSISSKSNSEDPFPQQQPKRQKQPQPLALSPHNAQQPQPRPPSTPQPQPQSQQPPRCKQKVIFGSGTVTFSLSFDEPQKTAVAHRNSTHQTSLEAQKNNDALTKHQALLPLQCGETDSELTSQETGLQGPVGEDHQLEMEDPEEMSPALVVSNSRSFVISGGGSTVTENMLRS
Description: (§1) Glass capillary tubes (1 mm diameter) were pulled to a fine tip and manually broken to achieve a tip diameter of about 15 μmeters. A droplet of mRNA (1 ng/nl in diethylpyrocarbonate (DEPC)-treated water) was placed onto […]® and drawn into the capillary tube by suction. The capillary tube was then connected to a picospritzer (WPI Instruments) and the volume of the air-pulsed droplets adjusted to deliver 50 ng of mRNA (typically 50 nl). A 35-mm culture dish with a patch of nylon stocking fixed to the bottom was used to secure the oocytes during injection of mRNA into the vegetal pole. The injected oocytes were placed into a 35-mm culture dish containing MBS, 100 μg/ml penicillin and 100 μg/ml streptomycin and incubated at 18° C. for 3 days.
(§2) Following incubation, an oocyte was placed into a 100-μl plastic chamber and superfused with MBS at a flow rate of 0.5 ml/min using a peristaltic pump. Test molecules or inorganic polycations were added by rapidly moving the tubing into different buffers. Recording and current-passing electrodes were constructed from thin-wall capillary tubing pulled to a resistance of 1-3 Mohms and filled with 3M KCl. […] Currents were recorded directly onto a strip chart recorder.

C-cell calcium receptor = molecular target: T2, C-cell calcium receptor (Rattus norvegicus, UniProt P48442); assay type: cell-based; design: Neoplastic C-cells derived from a rat medullary thyroid carcinoma (rMTC 6-23); host or cells: rMTC 6-23; conditions: rMTC 6-23 cells, fura-2; inactive = no increase in cytosolic Ca2+ at 1-5 mM
T2 sequence (P48442 20-1079): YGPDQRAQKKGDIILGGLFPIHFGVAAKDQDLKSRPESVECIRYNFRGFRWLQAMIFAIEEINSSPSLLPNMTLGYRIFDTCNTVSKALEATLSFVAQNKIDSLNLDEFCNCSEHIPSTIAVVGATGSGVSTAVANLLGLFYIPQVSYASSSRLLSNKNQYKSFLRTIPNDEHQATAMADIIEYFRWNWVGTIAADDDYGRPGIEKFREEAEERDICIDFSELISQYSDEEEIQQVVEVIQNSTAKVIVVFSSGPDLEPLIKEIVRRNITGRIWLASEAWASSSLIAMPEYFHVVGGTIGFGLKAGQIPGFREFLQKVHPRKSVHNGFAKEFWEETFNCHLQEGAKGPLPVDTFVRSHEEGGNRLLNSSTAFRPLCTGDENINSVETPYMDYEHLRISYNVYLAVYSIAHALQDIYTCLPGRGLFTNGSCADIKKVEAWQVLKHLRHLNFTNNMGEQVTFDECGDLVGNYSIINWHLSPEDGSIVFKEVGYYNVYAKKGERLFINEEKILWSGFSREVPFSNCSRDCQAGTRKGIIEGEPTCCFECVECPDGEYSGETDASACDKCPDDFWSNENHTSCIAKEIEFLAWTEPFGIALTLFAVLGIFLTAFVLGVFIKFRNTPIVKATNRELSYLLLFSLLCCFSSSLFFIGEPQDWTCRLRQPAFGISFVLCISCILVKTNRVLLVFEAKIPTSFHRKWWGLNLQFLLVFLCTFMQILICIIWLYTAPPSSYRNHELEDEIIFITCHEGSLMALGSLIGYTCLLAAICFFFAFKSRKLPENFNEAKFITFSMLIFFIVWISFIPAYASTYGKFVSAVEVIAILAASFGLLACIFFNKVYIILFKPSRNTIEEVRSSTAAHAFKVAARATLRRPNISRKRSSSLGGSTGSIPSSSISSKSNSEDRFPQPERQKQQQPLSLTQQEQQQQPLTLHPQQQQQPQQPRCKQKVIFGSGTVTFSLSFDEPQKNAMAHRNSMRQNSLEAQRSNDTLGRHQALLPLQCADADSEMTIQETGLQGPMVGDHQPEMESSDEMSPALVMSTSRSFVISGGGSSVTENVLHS
Description: To assess the effects of molecular polycations on C-cells, a neoplastic cell line, derived from a rat medullary thyroid carcinoma (rMTC 6-23 cells) was used.

net positive charge = assay type: physicochemical
[3] = system: inositol phosphate formation in bovine parathyroid cells; experiment: inositol phosphate formation in bovine parathyroid cells; assay type: cell-based
Description: After 30 seconds, the reaction was terminated by the addition of CHCl3 :MeOH:HCl and IP1 (circles) and IP3 (triangles) separated by anion exchange chromatography. Each point is the mean of 2 experiments, each performed in triplicate.
This section describes procedures measuring inositol phosphate formation. Membrane phospholipids were labeled by incubating parathyroid cells with 4 μCi/ml ^3 H-myo-inositol for 20-24 hours. Cells were then washed and resuspended in PCB containing 0.5 mM CaCl2 and 0.1% BSA. Incubations were performed in microfuge tubes in the absence or presence of various concentrations of organic polycation for different times. Reactions were terminated by the addition of 1 ml chloroform-methanol-12N HCl (200:100:1; v/v/v). Aqueous phytic acid hydrolysate (200 μl; 25 μg phosphate/tube). The tubes were centrifuged and 600 μl of the aqueous phase was diluted into 10 ml water.
Inositol phosphates were separated by ion-exchange chromatography using AG1-X8 in either the chloride- or formate-form. When only IP3 levels were to be determined, the chloride-form was used, whereas the formate form was used to resolve the major inositol phosphates (IP3, IP2, and IP1). For determination of just IP3, the diluted sample was applied to the chloride-form column and the column was washed with 10 ml 30 mM HCl followed by 6 ml 90 mM HCl and the IP3 was eluted with 3 ml 500 mM HCl. The last eluate was diluted and counted. For determination of all major inositol phosphates, the diluted sample was applied to the formate-form column and IP1, IP2, and IP3 eluted sequentially by increasing concentrations of formate buffer. The eluted samples from the formate columns were rotary evaporated, the residues brought up in cocktail, and counted.

[4] = system: PTH secretion from bovine parathyroid cells; experiment: PTH secretion from bovine parathyroid cells; assay type: cell-based; conditions: for inhibition of PTH secretion: bovine parathyroid cells
Description: PTH secretion was measured by first suspending cells in PCB containing 0.5 mM CaCl2 and 0.1% BSA.

[5] = system: parathyroid cell calcium receptor; assay type: cell-based
Description: For example, bovine parathyroid cells loaded with fura-2 are initially suspended in buffer containing 0.5 mM CaCl2. A test substance is added to the cuvette in a small volume (5-15 μl) and changes in the fluorescence signal are measured. Cumulative increases in the concentration of the test substance are made in the cuvette until some predetermined concentration is achieved or no further changes in fluorescence are noted.
This section describes procedures used to obtain and treat parathyroid cells from calves and humans. […] Human parathyroid glands, were obtained from patients undergoing surgical removal of parathyroid tissue for primary or uremic hyperparathyroidism (uremic HPT), and were treated similarly to bovine tissue.
Glands were trimmed of excess fat and connective tissue and then minced with fine scissors into cubes approximately 2-3 mm on a side. Dissociated parathyroid cells were prepared by collagenase digestion and then purified by centrifugation in Percoll buffer. The resultant parathyroid cell preparation was essentially devoid of red blood cells, adipocytes, and capillary tissue as assessed by phase contrast microscopy and Sudan black B staining. Dissociated and purified parathyroid cells were present as small clusters containing 5 to 20 cells.
(§3) The cells were then pelleted, resuspended in the same buffer, but lacking the ester, and incubated a further 15 minutes at 37° C. The cells were subsequently washed twice with PCB containing 0.5 mM CaCl2 and 0.5% BSA and maintained at room temperature (about 20° C.). Immediately before use, the cells were diluted five-fold with prewarmed 0.5 mM CaCl2 -PCB to obtain a final BSA concentration of 0.1%. The concentration of cells in the cuvette used for fluorescence recording was 1-2×10^6 /ml.
(§4) The fluorescence of indicator-loaded cells was measured at 37° C. in a spectrofluorimeter (Biomedical Instrumentation Group, University of Pennsylvania, Philadelphia, Pa.) equipped with a thermostated cuvette holder and magnetic stirrer using excitation and emission wavelengths of 340 and 510 nm, respectively. […] Leakage of dye is dependent on temperature and most occurs within the first 2 minutes after warming the cells in the cuvette. Dye leakage increases only very slowly thereafter. To correct the calibration for dye leakage, cells were placed in the cuvette and stirred at 37° C. for 2-3 minutes. The cell suspension was then removed, the cells pelleted, and the supernatant returned to a clean cuvette. […] This estimate was subtracted from the apparent Fmin.
Dissociated bovine parathyroid cells were purified on gradients of Percoll and cultured overnight in serum-free medium.

[6] = system: cyclic AMP formation in bovine parathyroid cells; assay type: cell-based
Description: Cells were incubated as above for PTH secretion studies and at the end of the incubation, a 0.15-ml sample was taken and transferred to 0.85 ml of hot (70° C.) water and heated at this temperature for 5-10 minutes. The tubes were subsequently frozen and thawed several times and the cellular debris sedimented by centrifugation. Portions of the supernatant were acetylated and cyclic AMP concentrations determined by radioimmunoassay.
Each value is the mean±SEM of three experiments.

[7] = molecular target: T3, calcium receptor expressed from human parathyroid cell mRNA in Xenopus oocytes (Homo sapiens, UniProt P41180); experiment: response of Xenopus oocytes injected with human parathyroid mRNA; assay type: cell-based; conditions: human parathyroid mRNA
T3 sequence (P41180 20-1078): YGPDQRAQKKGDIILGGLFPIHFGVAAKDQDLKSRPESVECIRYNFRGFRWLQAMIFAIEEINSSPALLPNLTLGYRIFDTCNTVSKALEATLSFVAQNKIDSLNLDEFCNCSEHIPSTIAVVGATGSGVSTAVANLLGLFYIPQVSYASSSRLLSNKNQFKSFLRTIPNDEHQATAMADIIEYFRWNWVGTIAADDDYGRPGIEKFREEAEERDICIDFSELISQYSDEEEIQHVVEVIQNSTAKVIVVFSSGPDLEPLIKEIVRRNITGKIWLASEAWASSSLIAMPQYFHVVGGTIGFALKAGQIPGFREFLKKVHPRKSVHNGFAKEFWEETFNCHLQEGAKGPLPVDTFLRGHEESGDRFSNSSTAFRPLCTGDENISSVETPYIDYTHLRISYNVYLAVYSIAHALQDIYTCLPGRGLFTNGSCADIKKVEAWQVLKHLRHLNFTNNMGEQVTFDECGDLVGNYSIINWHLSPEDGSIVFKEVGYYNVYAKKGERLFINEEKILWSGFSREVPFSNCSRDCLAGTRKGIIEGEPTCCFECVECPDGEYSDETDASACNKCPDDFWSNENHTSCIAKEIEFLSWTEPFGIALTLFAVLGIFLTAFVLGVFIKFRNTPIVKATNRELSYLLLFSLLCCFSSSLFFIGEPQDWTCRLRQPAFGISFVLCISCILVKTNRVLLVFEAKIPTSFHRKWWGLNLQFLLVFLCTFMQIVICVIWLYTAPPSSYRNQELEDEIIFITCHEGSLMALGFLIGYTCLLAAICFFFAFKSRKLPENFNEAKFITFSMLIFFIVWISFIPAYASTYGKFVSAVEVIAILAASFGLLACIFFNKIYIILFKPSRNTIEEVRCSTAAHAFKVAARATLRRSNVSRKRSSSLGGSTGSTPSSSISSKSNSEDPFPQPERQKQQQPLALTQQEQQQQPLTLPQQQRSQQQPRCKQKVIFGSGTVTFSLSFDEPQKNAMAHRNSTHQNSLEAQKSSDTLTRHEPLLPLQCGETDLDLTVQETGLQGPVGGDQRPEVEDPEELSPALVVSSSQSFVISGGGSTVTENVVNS
Description: Oocytes were injected with poly(A)^+ -enriched mRNA from human parathyroid tissue (hyperplastic glands from a case of secondary HPT).
as §1, §2
Using this screen allows one to test for an action directly on the calcium receptor. Oocytes expressing the calcium receptor also responded to several molecules active on intact parathyroid cells when screened as follows. […] This offers rather compelling evidence showing that these molecules act on the calcium receptor or on some other protein intimately associated with its function.

[8] = molecular target: T4, human parathyroid cells (calcium receptor) (Homo sapiens, UniProt P41180); assay type: cell-based; conditions: 1 μM
T4 sequence (P41180 20-1078): T3 sequence (P41180 20-1078)
Description: Human parathyroid glands, were obtained from patients undergoing surgical removal of parathyroid tissue for primary or uremic hyperparathyroidism (uremic HPT), and were treated similarly to bovine tissue.
as §3, §4

**Q.** Which EC50 [1] does the source give for CC(NCCC(c1ccccc1)c1ccccc1)c1ccccc1 (racemic) [Fendiline, diphenylpropyl-α-phenethylamine] here?
**A.** 200 µM

**Q.** And the “concentration eliciting oscillatory increases in Cl- current” value [2]?
**A.** 100 µM

**Q.** And the “oscillatory increases in Cl- current (words)” value [2]?
**A.** evokes the mobilization of intracellular

**Q.** And the “oscillatory increases in Cl- current (words)” value ([2]; listed as fendiline)?
**A.** evokes oscillatory increases

**Q.** And the EC50 (C-cell calcium receptor)?
**A.** > 100 µM

**Q.** Which “net positive charge” value (net positive charge) does the source give for protamine here?
**A.** +21

**Q.** What about the “formation of inositol phosphates” value [3] of the same molecule?
**A.** increases the formation of inositol phosphates

**Q.** And the “onset of increase in IP3 formation” value [3]?
**A.** ≤ 30 s

**Q.** What about the “inhibition of PTH secretion” value [4] of the same molecule?
**A.** inhibit PTH secretion; also recorded: inhibited PTH secretion to the same extent

**Q.** And the “increase in [Ca2+]i / mobilization of intracellular Ca2+” value [5]?
**A.** evoked rapid and transient increases

**Q.** What about the “isoproterenol-induced cyclic AMP” value [6] of the same molecule?
**A.** depressed isoproterenol-induced increases

**Q.** With C1CNCCNCCNCCNCCNCCN1 [Hexacyclen, 1,4,7,10,13,16-hexaaza-cyclooctadecane] as the molecule, how does the “Net (+) Charge (Table 1)” value (net positive charge) read?
**A.** +6

**Q.** What about the “relative potency (fold)” value ([5]; hexacyclen vs NPS 383) of the same molecule?
**A.** 7 fold

**Q.** What about the “relative potency (fold)” value ([5]; hexacyclen vs […]) of the same molecule?
**A.** 25 fold

**Q.** What about the EC50 ([5]; parathyroid cells, screened as in Example 1, read-out: EC50 (Table 1)) of the same molecule?
**A.** 20 µM

**Q.** What about the “concentration effective in oocytes” value [7] of the same molecule?
**A.** 135 µM

**Q.** For NCCCNCCCCNCCCN [Spermine, spermine], which “inhibition of PTH secretion” value [4] is on record?
**A.** inhibits PTH secretion; also recorded: inhibited PTH secretion to the same extent

**Q.** Which “IP1 formation evoked by extracellular Ca2+ or spermine” value ([3]; 100 nM PMA, 5 minutes) does the source give for CCCCCCCCCCCCCC(=O)O[C@@H]1[C@@H](C)[C@@]2(O)[C@@H](C=C(CO)C[C@]3(O)C(=O)C(C)=C[C@@H]23)[C@@H]2C(C)(C)[C@]12OC(C)=O [PMA, phorbol myristate acetate] here?
**A.** depresses the formation of IP1

**Q.** What about the “shift of concentration-response curve for PTH secretion” value ([4]; 100 nM PMA) of the same molecule?
**A.** shifts to the right

**Q.** And the “shift of concentration-response curve for [Ca2+]i” value ([5]; 100 nM PMA)?
**A.** shifts to the right

**Q.** With COCCOC(=O)C1=C(C)NC(C)=C(C(=O)OC(C)C)C1c1cccc([N+](=O)[O-])c1 (stereo not drawn) [nimodipine] as the molecule, how does the “effect on Mg2+-elicited sustained [Ca2+]i increase” value [8] read?
**A.** not affected

Reference: patent publication US5858684A, “Method of screening calcium receptor-active molecules” (priority 1995, dated 1999)
